Measurements reported in the Kinase Knowledgebase extract (Sharma et al. 2016).

Columns and labels:
PIK3CD (Human) [1] = target: PIK3CD (Human) (UniProt O00329); test: Enzyme Assay
PIK3CA (human) [2] = target: PIK3CA (human) (UniProt P42336); test: Enzyme Assay
PIK3CG (human) [3] = target: PIK3CG (human) (UniProt P48736); test: Enzyme Assay
PIK3CD (Human) [4] = target: PIK3CD (Human) (UniProt O00329); test: Cell-Based Assay; conditions: rat-1
PIK3CA (human) [5] = target: PIK3CA (human) (UniProt P42336); test: Cell-Based Assay; conditions: rat-1
PIK3CG (human) [6] = target: PIK3CG (human) (UniProt P48736); test: Cell-Based Assay; conditions: u937

Chain of PIK3CA (human) (P42336 whole entry, looked up): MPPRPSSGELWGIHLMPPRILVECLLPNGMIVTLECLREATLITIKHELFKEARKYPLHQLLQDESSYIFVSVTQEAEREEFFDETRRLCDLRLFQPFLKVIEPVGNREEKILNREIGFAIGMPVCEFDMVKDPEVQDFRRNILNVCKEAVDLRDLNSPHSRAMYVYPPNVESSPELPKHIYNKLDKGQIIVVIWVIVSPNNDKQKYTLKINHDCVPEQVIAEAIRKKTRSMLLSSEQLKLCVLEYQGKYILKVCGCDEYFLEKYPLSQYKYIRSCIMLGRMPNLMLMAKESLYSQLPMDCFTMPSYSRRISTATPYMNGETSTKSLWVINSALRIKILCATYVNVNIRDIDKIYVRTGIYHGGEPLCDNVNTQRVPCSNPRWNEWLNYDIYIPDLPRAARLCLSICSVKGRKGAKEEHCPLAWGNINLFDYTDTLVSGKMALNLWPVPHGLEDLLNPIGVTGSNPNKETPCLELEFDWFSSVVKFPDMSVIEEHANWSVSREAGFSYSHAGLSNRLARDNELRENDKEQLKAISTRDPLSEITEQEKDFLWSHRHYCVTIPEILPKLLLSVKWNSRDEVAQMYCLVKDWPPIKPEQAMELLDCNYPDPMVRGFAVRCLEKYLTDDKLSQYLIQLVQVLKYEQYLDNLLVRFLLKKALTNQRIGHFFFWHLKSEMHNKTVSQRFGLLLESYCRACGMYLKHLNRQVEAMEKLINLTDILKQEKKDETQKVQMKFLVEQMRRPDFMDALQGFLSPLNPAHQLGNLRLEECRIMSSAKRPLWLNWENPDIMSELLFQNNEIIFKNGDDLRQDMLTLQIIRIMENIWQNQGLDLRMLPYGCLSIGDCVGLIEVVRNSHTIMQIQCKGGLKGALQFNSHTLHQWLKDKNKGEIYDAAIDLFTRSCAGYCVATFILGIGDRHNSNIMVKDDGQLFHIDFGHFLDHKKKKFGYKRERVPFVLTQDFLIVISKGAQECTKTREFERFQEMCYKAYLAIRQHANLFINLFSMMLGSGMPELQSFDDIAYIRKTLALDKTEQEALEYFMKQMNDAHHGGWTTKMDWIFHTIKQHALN
Chain of PIK3CG (human) (P48736 whole entry, looked up): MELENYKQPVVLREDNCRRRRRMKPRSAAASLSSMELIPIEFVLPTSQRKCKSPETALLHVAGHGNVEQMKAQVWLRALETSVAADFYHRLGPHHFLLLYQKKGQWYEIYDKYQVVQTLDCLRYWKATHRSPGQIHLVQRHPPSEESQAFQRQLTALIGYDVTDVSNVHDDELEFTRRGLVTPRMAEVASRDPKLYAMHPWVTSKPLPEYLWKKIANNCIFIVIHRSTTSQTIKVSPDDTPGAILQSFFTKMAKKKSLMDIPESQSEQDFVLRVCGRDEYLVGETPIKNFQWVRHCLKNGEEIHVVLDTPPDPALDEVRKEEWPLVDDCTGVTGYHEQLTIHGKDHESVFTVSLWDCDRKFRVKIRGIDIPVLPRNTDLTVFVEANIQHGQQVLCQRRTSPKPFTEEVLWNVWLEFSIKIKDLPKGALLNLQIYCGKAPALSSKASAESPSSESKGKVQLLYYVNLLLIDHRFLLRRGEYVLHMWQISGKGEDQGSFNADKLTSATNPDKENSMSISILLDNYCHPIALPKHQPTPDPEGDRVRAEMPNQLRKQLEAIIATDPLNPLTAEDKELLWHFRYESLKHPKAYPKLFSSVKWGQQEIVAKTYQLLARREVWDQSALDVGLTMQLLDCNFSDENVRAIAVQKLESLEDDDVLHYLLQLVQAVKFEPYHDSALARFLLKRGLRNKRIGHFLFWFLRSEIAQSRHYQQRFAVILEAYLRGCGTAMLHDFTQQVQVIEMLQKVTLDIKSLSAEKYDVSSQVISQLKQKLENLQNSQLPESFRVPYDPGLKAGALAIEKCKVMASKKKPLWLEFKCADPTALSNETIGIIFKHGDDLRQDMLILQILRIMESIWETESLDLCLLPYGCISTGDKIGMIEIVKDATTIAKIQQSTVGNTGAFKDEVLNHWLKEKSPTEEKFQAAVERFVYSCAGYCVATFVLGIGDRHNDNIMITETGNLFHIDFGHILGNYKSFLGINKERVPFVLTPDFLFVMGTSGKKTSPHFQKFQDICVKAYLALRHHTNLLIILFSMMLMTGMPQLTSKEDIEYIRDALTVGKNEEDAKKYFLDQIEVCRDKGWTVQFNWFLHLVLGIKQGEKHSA
Chain of PIK3CD (Human) (O00329 whole entry, looked up): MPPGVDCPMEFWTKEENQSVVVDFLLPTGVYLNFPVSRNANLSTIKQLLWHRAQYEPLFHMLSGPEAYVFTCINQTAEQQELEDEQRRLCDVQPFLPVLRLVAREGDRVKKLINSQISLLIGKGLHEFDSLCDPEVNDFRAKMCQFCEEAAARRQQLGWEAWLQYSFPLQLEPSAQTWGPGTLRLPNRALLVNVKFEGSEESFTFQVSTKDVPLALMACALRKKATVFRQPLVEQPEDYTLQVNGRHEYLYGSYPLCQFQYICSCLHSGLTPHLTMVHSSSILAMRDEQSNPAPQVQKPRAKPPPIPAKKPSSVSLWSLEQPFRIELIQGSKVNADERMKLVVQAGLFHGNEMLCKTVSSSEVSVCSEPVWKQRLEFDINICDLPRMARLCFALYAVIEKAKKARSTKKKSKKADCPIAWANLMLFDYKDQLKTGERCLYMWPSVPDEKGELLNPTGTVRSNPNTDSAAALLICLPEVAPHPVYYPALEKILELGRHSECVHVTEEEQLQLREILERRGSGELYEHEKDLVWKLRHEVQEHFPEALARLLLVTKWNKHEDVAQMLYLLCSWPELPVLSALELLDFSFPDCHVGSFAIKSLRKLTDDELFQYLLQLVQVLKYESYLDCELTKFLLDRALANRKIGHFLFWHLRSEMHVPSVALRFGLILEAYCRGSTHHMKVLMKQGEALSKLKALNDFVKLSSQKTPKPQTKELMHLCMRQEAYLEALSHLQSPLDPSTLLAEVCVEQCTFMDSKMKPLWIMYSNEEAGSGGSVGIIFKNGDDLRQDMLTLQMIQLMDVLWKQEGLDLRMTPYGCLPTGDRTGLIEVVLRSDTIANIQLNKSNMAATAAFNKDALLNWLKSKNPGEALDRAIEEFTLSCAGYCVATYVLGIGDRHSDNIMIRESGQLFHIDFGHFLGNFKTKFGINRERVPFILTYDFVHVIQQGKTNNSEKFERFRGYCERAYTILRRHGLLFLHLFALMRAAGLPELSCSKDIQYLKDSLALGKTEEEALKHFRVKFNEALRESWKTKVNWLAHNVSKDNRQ

Structure (SMILES) | IC50 (PIK3CD (Human) [1]) [nM] | IC50 (PIK3CA (human) [2]) [nM] | IC50 (PIK3CG (human) [3]) [nM] | IC50 (PIK3CD (Human) [4]) [nM] | IC50 (PIK3CA (human) [5]) [µM] | IC50 (PIK3CG (human) [6]) [nM]
Nc1nc(N2C[C@@H](O)C[C@H]2c2nc3cccc(C(F)(F)F)c3c(=O)n2-c2ccccc2)c2ncsc2n1 | 27 | 2500 | 37 | 89 | 5.31 | 55
Cc1nc(N)nc(N2C[C@@H](O)C[C@H]2c2nc3cccc(C(F)(F)F)c3c(=O)n2-c2cccnc2)c1C#N | 960 | 1800 | 220 | 67 | > 10 | 206
N#Cc1c(C(F)F)nc(N)nc1N1C[C@@H](O)C[C@H]1c1nc2cccc(C(F)(F)F)c2c(=O)n1-c1ccccc1 | 220 | > 10000 | 58 | 517 | > 10 | 187
N#Cc1c(N)ncnc1N1C[C@@H](O)C[C@H]1c1nc2cccc(C(F)(F)F)c2c(=O)n1-c1cccc(F)c1 | 82 | 9300 | 720 | 29 | > 10 | 146
Cc1nc(N)nc(N2C[C@@H](O)C[C@H]2c2nc3cccc(C(F)(F)F)c3c(=O)n2-c2cc(F)cc(F)c2)c1C#N | 97 | 3100 | 890 | 42 | 8.84 | 60
N#Cc1c(N)ncnc1N1C[C@@H](O)C[C@H]1c1nc2ccc(F)c(Cl)c2c(=O)n1-c1ccccc1 | 47 | 2800 | 990 | 27 | 8.02 | 26
CO[C@H]1C[C@@H](c2nc3cccc(Cl)c3c(=O)n2C2CC2)N(c2ncnc(N)c2C#N)C1 | 128 | 2800 | 417 | 26 | 3.23 | 473
Cc1nc(N)nc(N2CCC[C@H]2c2nc3ccc(F)c(C(F)(F)F)c3c(=O)n2-c2ccccc2)c1C#N | 18 | 390 | 30 |  |  | 522
COc1cccc2nc([C@@H]3CCCN3c3ncnc(N)c3C#N)n(-c3ccccc3)c(=O)c12 | 76 | > 10000 | 5200 | > 10000 | > 10 | 382
Nc1nc(N2CCC[C@H]2c2nc3cccc(Cl)c3c(=O)n2N2CCOCC2)c2nccn2n1 | 22 | 2600 | 190 | 130 | > 10 | 399
Cc1nc(N)nc(N2C[C@@H](O)C[C@H]2c2nc3cccc(OC(F)F)c3c(=O)n2-c2ccccc2)c1C#N | 75 | 450 | 140 | 45 | 4.67 | 70
Nc1nc(N2C[C@@H](F)C[C@H]2c2nc3cccc(C(F)(F)F)c3c(=O)n2-c2cccnc2)c2nc[nH]c2n1 | 64 | 4400 | 48 | 240 | > 10 | 76
Nc1nc(N2CCC[C@H]2c2nc3cccc(C(F)(F)F)c3c(=O)n2-c2ccccc2)c2nccn2n1 | 67 | 2800 | 93 | 8040 | > 10 | 312
Nc1nc(N2C[C@@H](O)C[C@H]2c2nc3cccc(C(F)(F)F)c3c(=O)n2-c2ccccc2)c2nccn2n1 | 26 | 3300 | 31 | 90 | > 10 | 31
Cc1nc(N)nc(N2CCC[C@H]2c2nc3cccc(C(F)(F)F)c3c(=O)n2-c2cccc(F)c2)c1C#N | 17 | 890 | 82 | 37 | 4.44 | 164
Nc1nc(N2CCC[C@H]2c2nc3cccc(C(F)(F)F)c3c(=O)n2-c2cncc(F)c2)c2nc[nH]c2n1 | 160 | > 10000 | 320 | 164 | > 10 | 324
Cn1cnc2c(N3CCC[C@H]3c3nc4cccc(Cl)c4c(=O)n3N3CCOCC3)nc(N)nc21 | 2500 | 5250 | 505 | 476 |  | 2360
Cn1nccc1-n1c([C@@H]2CSCN2c2ncnc(N)c2C#N)nc2cccc(Cl)c2c1=O | 7200 | > 10000 | > 10000 | > 10000 | > 10 | 
Nc1nc(N2CCC[C@H]2c2nc3cc(F)cc(F)c3c(=O)n2-c2ccccc2)c2nc[nH]c2n1 | 150 | > 10000 | 4300 | 318 | > 10 | 
CO[C@H]1C[C@@H](c2nc3cccc(C(F)(F)F)c3c(=O)n2-c2ccccc2)N(c2nc(N)nc(C)c2C#N)C1 | 24 | 2100 | 107 | 182 |  | 227
CO[C@H]1C[C@@H](c2nc3cccc(C(F)(F)F)c3c(=O)n2-c2ccccc2)N(c2ncnc(N)c2C#N)C1 | 18 | 7600 | 460 | 35 |  | 671
Cc1nc(N)nc(N2CCC[C@H]2c2nc3cc(F)cc(F)c3c(=O)n2-c2ccccc2)c1C#N | 73 | 5600 | 3100 | 148 | > 10 | 
COc1ccc(-n2c([C@@H]3CCCN3c3ncnc(N)c3C#N)nc3cccc(Cl)c3c2=O)cn1 | 240 | > 10000 | 460 | 152 | > 10 | 
COC(=O)N1CC[C@@H](n2c([C@@H]3CCCN3c3ncnc4[nH]cnc34)nc3cccc(Cl)c3c2=O)C1 | 200 | > 10000 | > 10000 | 2350 | > 10 | 
Cc1nc(N)nc(N2CCC[C@H]2c2nc3cccc(Cl)c3c(=O)n2C2CC2)c1C#N | 31 | 930 | 110 | 61 | 1.16 | 
CO[C@H]1C[C@@H](c2nc3cccc(Cl)c3c(=O)n2C2CC2)N(c2nc(N)nc(C)c2C#N)C1 | 104 | 1320 | 220 | 73 | 3.54 | 

The next compounds have a lower IC50 (PIK3CD (Human) [1]) than those just listed; values first:

IC50 (PIK3CD (Human) [1]) [nM] | IC50 (PIK3CA (human) [2]) [nM] | IC50 (PIK3CG (human) [3]) [nM] | IC50 (PIK3CD (Human) [4]) [nM] | IC50 (PIK3CA (human) [5]) [µM] | IC50 (PIK3CG (human) [6]) [nM] | Structure (SMILES)
4 | 1000 | 50 | < 3 | 2.85 | 268 | N#Cc1c(N)ncnc1N1C[C@@H](O)C[C@H]1c1nc2cccc(Cl)c2c(=O)n1-c1ccccc1
13 | 4200 | 500 |  |  | 211 | N#Cc1c(N)ncnc1N1CCC[C@H]1c1nc2ccc(F)c(C(F)(F)F)c2c(=O)n1-c1ccccc1
4 | 110 | 11 | 6 | 2.37 | 35 | Cc1nc(N)nc(N2C[C@@H](O)C[C@H]2c2nc3ccc(F)c(C4CC4)c3c(=O)n2-c2ccccc2)c1C#N
8 | 2400 | 55 | 10 | 0.766 | 31 | N#Cc1c(N)ncnc1N1C[C@@H](F)C[C@H]1c1nc2cccc(C(F)(F)F)c2c(=O)n1-c1ccccc1
10 | 350 | 19 | < 3 | > 10 | 59 | Nc1nc(N2CCC[C@H]2c2nc3cccc(Cl)c3c(=O)n2-c2ccccc2)c2ncsc2n1
5 | 2340 | 129 | 14 | 8.12 | > 10000 | N#Cc1c(N)ncnc1N1CSC[C@H]1c1nc2cccc(Cl)c2c(=O)n1-c1ccccc1
4 | 5100 | 81 | 51 | 4.69 | 215 | O=c1c2c(Cl)cccc2nc([C@@H]2CCCN2c2ncnc3scnc23)n1-c1ccccc1
11 | 510 | 27 | 87 | 7.54 | 38 | Nc1nc(N2C[C@@H](O)C[C@H]2c2nc3cccc(C(F)(F)F)c3c(=O)n2-c2ccccc2)c2nc[nH]c2n1
3 | 1430 | 110 | 15 | > 10 | 494 | N#Cc1c(N)ncnc1N1CCC[C@H]1c1nc2cccc(O)c2c(=O)n1-c1ccccc1
10 | 590 | 47 | 12 | 2.06 | 22 | Cc1nc(N)nc(N2C[C@@H](F)C[C@H]2c2nc3cccc(C(F)(F)F)c3c(=O)n2-c2ccccc2)c1C#N
< 3 | 780 | 5 | 8 |  | 59 | Cc1nc(N)nc(N2C[C@@H](O)C[C@H]2c2nc3cccc(C(F)(F)F)c3c(=O)n2-c2ccccc2)c1C#N
11 | 1000 | 27 | 43 | 5.48 | 352 | CO[C@H]1C[C@@H](c2nc3cccc(Cl)c3c(=O)n2-c2ccccc2)N(c2ncnc3[nH]cnc23)C1
10 | 2200 | 370 | 7 | 2.72 | 331 | Cc1c(F)ccc2nc([C@@H]3C[C@H](O)CN3c3ncnc(N)c3C#N)n(-c3ccccc3)c(=O)c12
12 | 2400 | 590 | 166 | > 10 |  | N#Cc1c(N)ncnc1N1CCC[C@H]1c1nc2cccc(OC(F)F)c2c(=O)n1-c1ccccc1
11 | 1600 | 200 | 20 | > 10 |  | N#Cc1c(N)ncnc1N1CCC[C@H]1c1nc2cccc(Cl)c2c(=O)n1N1CCOCC1
